Assay results taken from patent US20190282673A1, “STAPHTAME ACTIVITY ON BIOFILMS” (priority 2016, published 2019).
Values joined by “and” are separate entries in the source; they are usually repeats but may differ in a detail not shown here. Identical values can stand only once. Like-named read-outs stand apart in the source and are kept apart here.

Experiments:
[1] = system: S. aureus BK18 and B9377 persisters; test: P128 and antibiotic activity on persisters (CFU); type: cell-based, Staphylococcus aureus; settings: for CFU/mL after treatment of persisters: 1×MIC, P128 1 h, antibiotics 6 h
Procedure: Persisters were generated as above were treated with P128 and antibiotics (Ref: Gutiérrez, et al. (2014) Effective Removal of Staphylococcal Biofilms by the Endolysin LysH5 PLoS One 9(9): e107307).
To 450 μL aliquots, P128. Daptomycin and Vancomycin (in saline) were added (individually) each at 1×MIC Conc., and another 450 μL aliquot was taken as control. The persister samples treated with P128 were incubated for 1 h, 37° C., and 200 rpm and those treated with antibiotics were incubated for 6 h, 37° C., and 200 rpm. After incubation samples were serially log diluted and plated.

S. aureus COL = type: in vivo, BALB/c mice; settings: P128 0.2 mg/kg ip single dose, or both
Procedure: A standard mouse model of S. aureus bacteremia was used. Zuluaga, et al. (2006) “Neutropenia induced in out bred mice by a simplified low-dose cyclophosphamide regimen: Characterization and applicability to diverse experimental models of infectious diseases” BMC Infect. Dis. 6:55-64. Female BALB/c mice of 8-9 weeks age were challenged by intraperitoneal route with S. aureus COL at 10^9 CFU per animal. After the bacterial challenge, animals were treated through parenteral routes with P128 alone or P128 in combination with standard of care antibiotics (e.g., vancomycin, daptomycin, linezolid, oxacillin, etc.). Animals were monitored for survival for a period of 72 hours. In this model of infection, normal as well as immunocompromised (neutropenia induced by cyclophosphamide) mice were used to evaluate P128 and antibiotic-P128 combinations.
Eight to nine weeks old female BALB/c mice were challenged intraperitoneally with 10^9 CFU of S. aureus COL. At 2 hours post-infection, animals were treated with either P128 at 0.2 mg/kg via intraperitoneal route, or vancomycin at 55 mg/kg by subcutaneous route, or a combination of both by respective routes. Groups treated with only vancomycin or combination of P128 and vancomycin were administered a second dose of vancomycin 12 hours after the first dose.
In the same model, efficacy of daptomycin in combination with P128 was evaluated. At 2 hours post-infection, animals were treated with either P128 at 0.2 mg/kg administered by intraperitoneal route, or daptomycin at 12.5 mg/kg administered by subcutaneous route; or a combination of both administered by respective routes. Groups treated with only daptomycin or combination of P128 and daptomycin were administered a second dose of daptomycin 12 hours after the first daptomycin dose.

S. epidermidis biofilms = test: MBIC and checkerboard synergy on preformed biofilm (MTT assay); type: cell-based, Staphylococcus epidermidis; settings: for MBIC (drug alone): 6 hr treatment; for MBIC: S. epidermidis ATCC 12228 biofilm
Procedure: The ability of P128 to inhibit growth of S. aureus in a preformed biofilm was measured by determining minimum biofilm inhibition concentration (MBIC), defined as minimum concentration showing growth inhibition in a MTT based assay. Since P128 kills Staphylococcus cultures rapidly, it was expected to show a rapid effect on biofilms as well. Paul, et al. (2011) “A novel bacteriophage Tail-Associated Muralytic Enzyme (TAME) from Phage K and its development into a potent antistaphylococcal protein” BMC Microbiol. 11:226.
Culture conditions were optimized for reproducibly obtaining a robust biofilm of S. epidermidis in 96 well microtitre plates. For this purpose, biofilms were generated in microtiter plates and the surface-adhered cultures remaining after washing off the planktonic cells were analyzed at the end of 72 h by MTT dye assay. Briefly, an overnight-grown culture of the S. epidermidis strain was diluted 1:40 in LB broth. 200 μL of diluted culture was aliquoted into microtiter plate wells. Microplates were placed in a shaker-incubator set to 37° C., and 100 rpm for 24 h followed by 48 h incubation under static conditions at 37° C. The contents of wells were aspirated and discarded. Wells were washed twice with 1×PBS and the presence of biofilm in the wells at the end of 72-hour period was determined by metabolic dye-reduction assay method using MTT (3-(4,5-dimethylthiazol-2-yl)-2,5-diphenyltetrazolium bromide; Himedia). In this assay, live cells reduce the dye leading to color formation which can be read at 570 nm and the intensity of color can be correlated to number of live cells.
[…] LB supplemented with 50 μg/mL Ca^++ was used for daptomycin treatment wells. The contents of the well was aspirated out and discarded. The biofilm adhered to the wells was quantified by MTT assay as described above. In each experiment, in addition to the combination MBIC, the MBIC of each drug was also determined individually. The fractional MBIC concentrations were determined by MTT dye method as described above. The FICI and synergy was calculated.

[2] = system: S. aureus MW2 biofilms on catheters; test: Preformed biofilms on catheters, safranin staining and SEM; type: cell-based, Staphylococcus aureus; settings: 18 hrs; P128 8 μg/mL (1×MIC); vancomycin 90 μg/mL (90×MIC); daptomycin 10 μg/mL (10×MIC)
Procedure: To study the efficacy of P128 on biofilms on catheters, an overnight-grown culture of S. aureus MW2 was diluted 1:40 in TSB containing 5% rabbit plasma. Catheter (JMS Infusion set) pieces of 1-2 cm size were cut, slit into two halves and added to the culture. The cultures with catheter pieces were incubated at 37° C. with shaking at 100 rpm for 24 h. Post incubation, the catheters were removed and rinsed twice in PBS to remove the adhering planktonic cells. The biofilms on catheters were challenged with 8, 4, 2 and 1 μg/mL of P128 or 15, 30 and 90 μg/mL of vancomycin or 10 μg/mL of daptomycin (with 50 μg/mL CaCl2) by transferring the catheter pieces into tubes containing the drugs. The tubes were incubated at 37° C. under static conditions for 18 hrs. The catheters were then removed from the tubes, rinsed once in PBS, and immersed in 0.1% safranin for 5 min. The stained catheters were washed once in PBS and allowed to dry. After drying, samples were fixed on aluminum stubs with double sided carbon adhesive tape, coated with 5-7 nm thickness gold using a sputter-coating system (Quorum Technologies; Q150T) and examined by SEM (Carl Zeiss; Neon 40) for the presence of biofilm structures.

[3] = S. aureus COL 10^9 CFU ip, Vancomycin 55 mg/kg sc 2 doses, 26 mice per group
[4] = S. epidermidis B9470 72 h preformed biofilm
[5] = S. epidermidis B9471 72 h preformed biofilm
[6] = S. epidermidis B9472 72 h preformed biofilm
[7] = S. aureus COL, Daptomycin 12.5 mg/kg sc 2 doses, 24 mice per group

Molecule | CFU/mL after treatment of persisters ([1]; B9377 Daptomycin persisters) | CFU/mL after treatment of persisters ([1]; B9377 Vancomycin persisters) | CFU/mL after treatment of persisters ([1]; BK18 Daptomycin persisters) | CFU/mL after treatment of persisters ([1]; BK18 Vancomycin persisters) | Survival at 72 h post infection (S. aureus COL; [3]) [%] | MBIC (drug alone) (S. epidermidis biofilms; [4]) | MBIC (drug alone) (S. epidermidis biofilms; [5]) [µg/mL] | MBIC (drug alone) (S. epidermidis biofilms; [6]) [µg/mL] | Effect on catheter biofilm (safranin/SEM) [2] | Survival at 72 h post infection (S. aureus COL; [7]) [%] | Drop in CFU ([1]; Vancomycin persisters (1×10^6 CFU/mL) of S. aureus BK18 and B9377 treated with P128) [log] | CFU recovered ([1]; daptomycin persisters of S. aureus treated with P128) [CFU/mL] | MBIC (S. epidermidis biofilms; 4 h) [µg/mL] | MBIC (S. epidermidis biofilms; 6 h) [µg/mL] | MBIC (S. epidermidis biofilms; 8 h) [µg/mL] | MBIC (S. epidermidis biofilms; 24 h) [µg/mL]
CN[C@H](CC(C)C)C(=O)N[C@H]1C(=O)N[C@@H](CC(N)=O)C(=O)N[C@H]2C(=O)N[C@H]3C(=O)N[C@H](C(=O)N[C@H](C(=O)O)c4cc(O)cc(O)c4-c4cc3ccc4O)[C@H](O)c3ccc(c(Cl)c3)Oc3cc2cc(c3O[C@@H]2O[C@H](CO)[C@@H](O)[C@H](O)[C@H]2O[C@H]2C[C@](C)(N)[C@H](O)[C@H](C)O2)Oc2ccc(cc2Cl)[C@H]1O [Vancomycin, vancomycin] | 2.6 × 10^2 CFU/mL | 4 × 10^5 CFU/mL | 1 × 10^1 CFU/mL | 8 × 10^5 CFU/mL | 46 | 7.8 µg/mL | 250 | 250 | minimal effect | – | – | – | – | – | – | –
CCCCCCCCCC(=O)N[C@@H](Cc1c[nH]c2ccccc12)C(=O)N[C@H](CC(N)=O)C(=O)N[C@@H](CC(=O)O)C(=O)N[C@@H]1C(=O)NCC(=O)N[C@@H](CCCN)C(=O)N[C@@H](CC(=O)O)C(=O)N[C@H](C)C(=O)N[C@@H](CC(=O)O)C(=O)NCC(=O)N[C@H](CO)C(=O)N[C@@H]([C@H](C)CC(=O)O)C(=O)N[C@@H](CC(=O)c2ccccc2N)C(=O)O[C@@H]1C [Daptomycin, daptomycin] | 1 × 10^2 CFU/mL | 6 × 10^5 CFU/mL | 1 × 10^1 CFU/mL | 7.5 × 10^5 CFU/mL | – | 15.6 µg/mL | 15.6 | 7.8 | significant reduction in biofilm mass | 45 | – | – | – | – | – | –
CC(=O)NC[C@H]1CN(c2ccc(N3CCOCC3)c(F)c2)C(=O)O1 [Linezolid, linezolid] | – | – | – | – | – | 7.8 µg/mL | 250 | 250 | – | – | – | – | – | – | – | –
P128: anti-staphylococcal chimeric protein: phage tail associated muralytic enzyme (TAME) cell wall-degrading region plus staphylococcus-specific binding region; SEQ ID NO: 1 (protein, P128 chimera) MSLDSLKKYNGKLPKHDPSFVQPGNRHYKYQCTWYAYNRRGQLGIPVPLWGDAADWIGGAKGAGYGVGRTPKQGACVIWQRGVQGGSPQYGHVAFVEKVLDGGKKIFISEHNYATPNGYGTRTIDMSSAIGKNAQFIYDKKLETPNTGWKTNKYGTLYKSESASFTPNTDIITRTTGPFRSMPQSGVLKAGQTIHYDEVMKQDGHVWVGYTGNSGQRIYLPVRTWNKSTNTLGVLWGTIK | 1 × 10^1 CFU/mL | 2.5 × 10^1 CFU/mL | 1 × 10^1 CFU/mL | 5 × 10^1 CFU/mL | 30 | 32 µg/mL and 16 µg/mL | 32 | 32 | eradication of the biofilm | 45 | ~5 | < 10 | 7.8 | 7.8 | 7.8 | >1000
